# Measured values from patent publication US20210000904A1, “NOVEL USE OF MAYDIS STIGMA EXTRACT IN PROPHYLAXIS AND THERAPY OF SLEEP DISORDER” (KONKUK UNIVERSITY GLOBAL INDUSTRY-ACADEMIC COLLABORATION …, priority 2018, published 2021).
# Tested on: ICR mice
# Assay: Caffeine sleep deprivation model with pentobarbital-induced sleep
# Type: in vivo, mouse
# Conditions: caffeine 10 mg/kg i.p., pentobarbital 42 mg/kg after 30 minutes
structure (smiles),measurement,value
Cn1c(=O)c2c(ncn2C)n(C)c1=O [caffeine],sleep duration decrease compared to negative control group,"1,000 seconds"
same,sleep onset time increase compared to negative control group,about 50 seconds
